Earlier results as cited in article PMC7867784 (Translational Lung Cancer Research, 2021).

Tested on: RET-rearranged NSCLC
Details: cited from earlier work; for response rate and PFS in NSCLC with RET rearrangement: recent clinical trials

## CO[C@]1(C(=O)N[C@@H](C)c2ccc(-n3cc(F)cn3)nc2)CC[C@H](c2nc(C)cc(Nc3cc(C)[nH]n3)n2)CC1 [pralsetinib]
  response rate and PFS in NSCLC with RET rearrangement: high response rate and prolonged PFS

## COc1cc2nccc(Oc3ccc(NC(=O)C4(C(=O)Nc5ccc(F)cc5)CC4)cc3)c2cc1OC [cabozantinib]
RET-rearranged NSCLC, 7/25 cases
  response rate: 28%
RET-rearranged NSCLC
  median PFS: 5.5 months

## COc1ccc(CN2C3CC2CN(c2ccc(-c4cc(OCC(C)(C)O)cn5ncc(C#N)c45)cn2)C3)cn1 [selpercatinib]
  response rate and PFS in NSCLC with RET rearrangement: high response rate and prolonged PFS
